Structures can show the parent of a compound that is named as a salt.
Experiments:
[1] = molecular target: T1, hPD-1 (50 nM) and hPD-L1 (5 nM) protein complex (Homo sapiens, UniProt Q9NZQ7); assay: Homogenous Time Resolved Fluorescence (HTRF) assay, Cisbio kit 64ICP01PEG; assay type: binding; conditions: activity range from Hill curve fit; 1 h incubation at room temperature; TR-FRET; three independent measurements
T1 construct: purchased Cisbio 64ICP01PEG
Method: The biological activity of the compounds described in the previous section was tested by the Homogenous Time Resolved Fluorescence (HTRF) method. Determination was carried out with the use of putty from the Cisbio company (catalog number 64ICP01PEG) in the 20 µL format using the protocol from the manufacturer. Compounds in the concentration range allowing determination of biological activity from the inflection curve were added to the hPD-1 (50 nM) and hPD-L1 (5 nM) protein complex with antibodies and allowed to incubate for one hour at room temperature before measuring Forster resonant energy transfer (TR-FRET) on a Tecan Spark 20M instrument. The results were normalized to a positive control (complex without inhibitor) and negative control (no hPD-1), averaged from three independent measurements and fitted with a Hill curve.
Ranges of activity of the tested compounds: "very good" (+++) below 20 nM, "moderate" (++) - 20-50 nM and "low" (+) - 50 nM - 1 µM.

PD-1/PD-L1 interaction = molecular target: T2, PD-1/PD-L1 interaction (Homo sapiens, UniProt Q9NZQ7); assay: PD-1/PD-L1 Blockade Bioassay (Promega J1252; NFAT cellular assay); assay type: cell-based; conditions: PD-1 Effector Jurkat cells co-cultured with PD-L1 aAPC/CHO-K1 cells for 6 h; NFAT-RE luminescence; three replications
T2 construct: host or cells: PD-L1 aAPC/CHO-K1 cells; PD-1 Effector Jurkat T cells
T2 sequence (Q9NZQ7 19-290): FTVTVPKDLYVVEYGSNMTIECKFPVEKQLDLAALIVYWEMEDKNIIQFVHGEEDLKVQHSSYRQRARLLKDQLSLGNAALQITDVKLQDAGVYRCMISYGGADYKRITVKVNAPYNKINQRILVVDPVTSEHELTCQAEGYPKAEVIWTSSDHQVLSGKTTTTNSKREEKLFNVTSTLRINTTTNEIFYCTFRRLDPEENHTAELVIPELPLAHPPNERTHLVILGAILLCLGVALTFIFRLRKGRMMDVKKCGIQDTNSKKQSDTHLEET
Method: The potency of blocking the PD-1/PD-L1 pathway was assessed using the PD-1/PD-L1 Blockade Bioassay (Promega, cat. J1252). This assay relies on two genetically engineered cell lines: PD-1 Effector cells (Jurkat T cells expressing human PD-1 and luciferase driven by NFAT response element) and PD-L1 aAPC/CHO-K1 cells (CHO-K1 cells expressing human PD-L1 and cell surface protein designed to activate cognate T-cell Receptors in an antigen-independent manner). When the two cell types are co-cultured, the PD-1/PD-L1 interaction inhibits TCR signaling and NFAT-RE-mediated luminescence. Addition of either an anti-PD-1 or anti-PD-L1 antibody that blocks the PD-1/PD-L1 interaction releases the inhibitory signal and leads to TCR activation and the NFAT-RE-mediated luminescence, which is then measured on a microplate reader. The assay was performed according to the manufacturer's manual. PD-L1 aAPC/CHO-K1 cells were plated in 96-well, white, flat bottom assay plates at […] cells in 100 µL of medium (Ham's F12, 10% FBS) and incubated overnight at 37°C, 5% CO2. The next day, the medium was removed from the assay plate and serially diluted compounds as listed in table 1 were added at 40 µL per well in the assay buffer (RPMI1640 + 1% FBS + 0,5% DMSO). Next, PD-1 Effector Jurkat cells were resuspended in the assay buffer (RPMI 1640 + 1% FBS) at a concentration of 1,25 × 10^6 cells/mL and added to the assay plate at 40 µL per well (total of […]). The cells were co-cultured for 6 h (37°C, 5% CO2) and then removed from the incubator and equilibrated for 5 min at room temperature. The Bio-GloTM Reagent (Promega, cat. G7941) was prepared according to the manufacturer's instructions and added to each well at 80 µL per well. The results were baseline-corrected to non-treated controls, averaged from three replications and fitted with a 4-parameters variable slope.

T1 sequence (Q9NZQ7 19-238 limits assumed, one chain of several): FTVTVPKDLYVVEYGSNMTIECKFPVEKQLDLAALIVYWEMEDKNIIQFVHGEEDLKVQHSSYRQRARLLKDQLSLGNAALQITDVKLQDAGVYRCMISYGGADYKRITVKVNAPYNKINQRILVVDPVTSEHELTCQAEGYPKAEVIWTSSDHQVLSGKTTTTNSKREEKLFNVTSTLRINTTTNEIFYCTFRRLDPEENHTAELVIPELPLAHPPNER

SMILES	IC50 [1] [nM]	EC50 (PD-1/PD-L1 interaction) [nM]
COc1cc(C(=O)Nc2cccc(-c3cccc(NC(=O)c4cc(OC)c(CN[C@@H](C)CO)cn4)c3C)c2C)ncc1CN[C@H]1CCC[C@@H]1O [Compound R1_C428, 5-((((1S,2S)-2-hydroxycyclopentyl)amino)methyl)-N-(3'-(5-((((S)-1-hydroxypropan-2-yl)amino)methyl)-4-methoxypicolinamido)-2,2'-dimethyl-[1,1'-biphenyl]-3-yl)-4-methoxypicolinamide]	< 20	44.6
COc1cc(C(=O)Nc2cccc(-c3cccc(NC(=O)c4cc(OC)c(CN(C)CCO)cn4)c3C)c2C)ncc1CN[C@@H](C)CO [Compound R1_C441, (S)-5-(((2-hydroxyethyl)(methyl)amino)methyl)-N-(3'-(5-(((1-hydroxypropan-2-yl)amino)methyl)-4-methoxypicolinamido)-2,2'-dimethyl-[1,1'-biphenyl]-3-yl)-4-methoxypicolinamide]	< 20	176
COc1cc(C(=O)Nc2cccc(-c3cccc(NC(=O)c4cc(OC)c(CN[C@@H]5CCC[C@H]5O)cn4)c3C)c2C)ncc1CNC(CO)CO [Compound R1_C445, 5-(((1,3-dihydroxypropan-2-yl)amino)methyl)-N-(3'-(5-((((1R,2R)-2-hydroxycyclopentyl)amino)methyl)-4-methoxypicolinamido)-2,2'-dimethyl-[1,1'-biphenyl]-3-yl)-4-methoxypicolinamide]	< 20	150
COc1cc(C(=O)Nc2cccc(-c3cccc(NC(=O)c4cc(OC)c(CN[C@@H](C)CO)cn4)c3C)c2C)ncc1CNC(CO)CO [Compound R1_C446, (S)-5-(((1,3-dihydroxypropan-2-yl)amino)methyl)-N-(3'-(5-(((1-hydroxypropan-2-yl)amino)methyl)-4-methoxypicolinamido)-2,2'-dimethyl-[1,1'-biphenyl]-3-yl)-4-methoxypicolinamide]	< 20	205
COc1cc(C(=O)Nc2cccc(-c3cccc(NC(=O)c4ccc(CN(C)CCO)cn4)c3C)c2C)ncc1CN(C)CCO [Compound R1_C450, 5-(((2-hydroxyethyl)(methyl)amino)methyl)-N-(3'-(5-(((2-hydroxyethyl)(methyl)amino)methyl)picolinamido)-2,2'-dimethyl-[1,1'-biphenyl]-3-yl)-4-methoxypicolinamide]	< 20	206
COc1cc(C(=O)Nc2cccc(-c3cccc(NC(=O)c4ccc(CN(C)CCO)cn4)c3C)c2C)ncc1CN[C@@H]1CCC[C@H]1O [Compound R1_C451, 5-((((1R,2R)-2-hydroxycyclopentyl)amino)methyl)-N-(3'-(5-(((2-hydroxyethyl)(methyl)amino)methyl)picolinamido)-2,2'-dimethyl-[1,1'-biphenyl]-3-yl)-4-methoxypicolinamide]	< 20	68
COc1cc(C(=O)Nc2cccc(-c3cccc(NC(=O)c4ccc(CN(C)CCO)cn4)c3C)c2C)ncc1CN[C@@H]1CCC[C@H]1O [Compound R1_C451_1, 5-((((1R,2R)-2-hydroxycyclopentyl)amino)methyl)-N-(3'-(5-(((2-hydroxyethyl)(methyl)amino)methyl)picolinamido)-2,2'-dimethyl-[1,1'-biphenyl]-3-yl)-4-methoxypicolinamide trihydrochloride]	–	234
COc1cc(C(=O)Nc2cccc(-c3cccc(NC(=O)c4cc(OC)c(CN[C@@H](C)CO)cn4)c3C)c2C)ncc1CNCCCO [Compound R1_C453, (S)-5-(((1-hydroxypropan-2-yl)amino)methyl)-N-(3'-(5-(((3-hydroxypropyl)amino)methyl)-4-methoxypicolinamido)-2,2'-dimethyl-[1,1'-biphenyl]-3-yl)-4-methoxypicolinamide]	< 20	143
COc1cc(C(=O)Nc2cccc(-c3cccc(NC(=O)c4cc(OC)c(CNCCCO)cn4)c3C)c2C)ncc1CNCCO [Compound R1_C454, 5-(((2-hydroxyethyl)amino)methyl)-N-(3'-(5-(((3-hydroxypropyl)amino)methyl)-4-methoxypicolinamido)-2,2'-dimethyl-[1,1'-biphenyl]-3-yl)-4-methoxypicolinamide]	50 to 1000	480
COc1cc(C(=O)Nc2cccc(-c3cccc(NC(=O)c4ccc(CN(C)CCO)cn4)c3C)c2C)ncc1CN[C@@H](C)CO [Compound R1_C458, (S)-N-(3'-(5-(((2-hydroxyethyl)(methyl)amino)methyl)picolinamido)-2,2'-dimethyl-[1,1'-biphenyl]-3-yl)-5-(((1-hydroxypropan-2-yl)amino)methyl)-4-methoxypicolinamide]	< 20	159
